Assay results taken from ChEMBL document CHEMBL1201862, “PubChem BioAssay data set” (2004).
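Briefly, cells in 96-well plates were exposed to five compound concentrations for 48 h, and endpoints were estimated by linear interpolation. Here, GI50 denotes the concentration required for 50% inhibition of growth.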 Active and inactive are the calls of the source. No stated cut-off is given here; in the data, active = GI50 up to about 1.1 µM and inactive = higher.

Columns and labels:
Assay in all cases: inhibition of tumour cell growth, NCI panel, 48 h
[1] = test system: K562
[2] = test system: HOP-92
[3] = test system: A498
[4] = test system: LOX IMVI
[5] = test system: HT-29
[6] = test system: ACHN
[7] = test system: SW-620
[8] = test system: UO-31
[9] = test system: SK-MEL-5
[10] = test system: UACC-257
[11] = test system: NCI-H226
[12] = test system: HOP-62
[13] = test system: PC-3
[14] = test system: COLO 205
[15] = test system: SN12C
[16] = test system: SK-OV-3
[17] = test system: NCI/ADR-RES
[18] = test system: OVCAR-8
[19] = test system: TK-10
[20] = test system: SK-MEL-2

Measured: GI50

CSc1nc(C)c(CCOC(C)=O)c(Cl)n1
inactive: [1] > 100 µM | [2] > 100 µM | [3] 48 µM | [4] > 100 µM | [5] > 100 µM | [6] > 100 µM | [7] > 100 µM | [8] > 100 µM | [9] > 100 µM | [10] > 100 µM | [11] > 100 µM | [12] > 100 µM | [13] > 100 µM | [14] > 100 µM | [15] > 100 µM | [16] > 100 µM | [17] > 100 µM | [18] > 100 µM | [19] > 100 µM

CC(=O)OC(OC(C)=O)c1ccc2ccc3cccc4ccc1c2c34
inactive: [1] 38.7 µM | [2] 17.9 µM | [3] 1.48 µM | [4] 16 µM | [5] 18 µM | [6] 26.2 µM | [8] 22.3 µM | [9] 18.2 µM | [10] 17.1 µM | [11] 3.08 µM | [13] 28.6 µM | [14] 25.1 µM | [15] 26.7 µM | [16] 23 µM | [17] 31.3 µM | [18] 12.8 µM | [19] 9.25 µM

O=C1COCCN1C(=O)c1ccccc1Cl
inactive: [1] > 100 µM | [2] > 100 µM | [3] > 100 µM | [4] > 100 µM | [5] > 100 µM | [6] > 100 µM | [7] > 100 µM | [8] > 100 µM | [9] > 100 µM | [10] > 100 µM | [11] > 100 µM | [12] > 100 µM | [13] > 100 µM | [15] > 100 µM | [17] > 100 µM | [18] > 100 µM | [19] > 100 µM

Cn1ccc(C(=O)NCCOCCNC(=O)c2ccn(C)c(=O)c2O)c(O)c1=O
inactive: [2] > 100 µM | [3] > 100 µM | [4] > 100 µM | [5] > 100 µM | [6] > 100 µM | [7] > 100 µM | [8] > 100 µM | [9] > 100 µM | [10] > 100 µM | [11] > 100 µM | [20] > 100 µM | [13] > 100 µM | [14] > 100 µM | [15] > 100 µM | [17] > 100 µM | [18] > 100 µM | [19] > 100 µM

COc1ccc(/C=C2/SC(c3ccc(Cl)cc3)N(NC(=O)CCCCCCCCC(=O)NN3C(=O)/C(=C\c4ccc(OC)c(OC)c4)SC3c3ccc(Cl)cc3)C2=O)cc1OC (stereo unspecified)
inactive: [1] 78.3 µM | [2] 18.8 µM | [3] 24.4 µM | [5] > 100 µM | [6] 65.2 µM | [7] > 100 µM | [8] 27.7 µM | [9] 50.1 µM | [10] 54.3 µM | [11] > 100 µM | [12] 25.8 µM | [20] 78 µM | [13] 54.1 µM | [14] > 100 µM | [15] > 100 µM | [16] 31.4 µM | [17] > 100 µM | [18] 52.8 µM | [19] 75.2 µM

CCCNC(=O)c1cc(NC(=O)c2cc(NC(=O)CCS(=O)(=O)OC)cn2C)cn1C
inactive: [1] 5.2 µM | [2] 3.76 µM | [3] > 69.3 µM | [4] 14.6 µM | [5] 22 µM | [6] 52.4 µM | [7] 6.27 µM | [8] > 100 µM | [9] 17.1 µM | [10] 24 µM | [12] 25.8 µM | [20] 18.3 µM | [13] 10.2 µM | [14] 6.64 µM | [15] 13.8 µM | [16] 9.55 µM | [17] > 100 µM | [18] 15.2 µM | [19] 67.5 µM

CC(CC(=O)O)(CC(=O)O)C(=O)O
inactive: [1] > 100 µM | [2] > 100 µM | [3] > 100 µM | [4] > 100 µM | [5] > 100 µM | [6] > 100 µM | [7] > 100 µM | [8] > 100 µM | [9] > 100 µM | [10] > 100 µM | [12] > 100 µM | [20] > 100 µM | [13] > 100 µM | [14] > 100 µM | [15] > 100 µM | [16] > 100 µM | [17] > 100 µM | [18] > 100 µM | [19] > 100 µM

CC[C@@H](C)[C@H](NC(=O)[C@H](Cc1ccccc1)NCC(F)(F)F)C(=O)OC(C)(C)C
inactive: [1] > 100 µM | [2] > 100 µM | [3] > 100 µM | [4] > 100 µM | [5] > 100 µM | [6] > 100 µM | [7] > 100 µM | [8] > 100 µM | [9] > 100 µM | [10] 81.5 µM | [11] 19.6 µM | [12] > 100 µM | [13] 91.6 µM | [14] > 100 µM | [15] > 100 µM | [16] > 100 µM | [17] > 100 µM | [18] > 100 µM | [19] > 100 µM

CC1(C)O[C@H]2OC(CO)C(N=[N+]=[N-])[C@H]2O1 (stereo partly specified)
inactive: [2] > 100 µM | [3] > 100 µM | [4] > 100 µM | [5] > 100 µM | [6] > 100 µM | [7] > 100 µM | [8] > 100 µM | [9] > 100 µM | [10] > 100 µM | [12] > 100 µM | [20] > 100 µM | [13] > 100 µM | [14] > 100 µM | [15] > 100 µM | [17] > 100 µM | [18] > 100 µM | [19] > 100 µM

CC(C)(C)OC(=O)C1=C(C(=O)OC(C)(C)C)SC2(S1)C(C(=O)OC(C)(C)C)=C(C(=O)OC(C)(C)C)Sc1c2ssc1=O
inactive: [1] 41.3 µM | [2] > 100 µM | [3] > 100 µM | [4] 34.7 µM | [5] 86.5 µM | [6] 44.1 µM | [7] 26.4 µM | [8] 56.8 µM | [9] > 100 µM | [10] > 100 µM | [12] 64.9 µM | [20] 72.9 µM | [13] 41 µM | [14] 62.7 µM | [15] 38.3 µM | [16] > 100 µM | [17] > 100 µM | [18] 49.9 µM | [19] > 100 µM

COc1ccc(-c2cc(O)c3cc(OC)c(OC)cc3n2)cc1OC
inactive: [1] > 100 µM | [2] 64.4 µM | [3] > 100 µM | [4] > 100 µM | [5] > 100 µM | [6] > 100 µM | [7] > 100 µM | [8] > 100 µM | [9] > 100 µM | [10] > 100 µM | [11] > 100 µM | [12] 37.7 µM | [13] > 100 µM | [14] > 100 µM | [15] > 100 µM | [16] > 100 µM | [17] > 100 µM | [18] > 100 µM | [19] > 100 µM
